From US20140243351A1, “DRUG FOR THE TREATMENT OF ALLERGIC RHINITIS COMPRISING PGD2 ANTAGONIST AND HISTAMINE ANTAGONIST” (Shionogi & Co., Ltd., priority 2011, published 2014)
Read-outs that look alike come from different tables or passages of the source. Marks after values point to notes of the source that are not given here.

Tests used:
[1] = system: seasonal allergic rhinitis patients; conditions: after two weeks, cited from earlier work; for change in nasal symptom scores per symptom from the placebo group: sneezing, nasal discharge, nasal congestion, nasal itching
[2] = system: seasonal allergic rhinitis patients; conditions: after two weeks; cited from earlier work
[3] = system: seasonal allergic rhinitis patients; conditions: after two weeks; montelukast 10 mg, loratadine 10 mg, combination 10 mg each; cited from earlier work
[4] = system: guinea pig rhinitis model induced with PGD2 and histamine; assay: Evaluation Test 3, guinea pig rhinitis model induced with PGD2 and histamine, nasal airway resistance; type: in vivo; conditions: oral, each agent at 10 mg/kg; about 10 minutes after PGD2 + histamine challenge
Text: The pharmacological efficacy evaluation was made using 9 to 12 week-old male Harley guinea pigs in the following manner. Specifically, the guinea pigs were divided into the following groups: Group 1: Control Group (a group administered with a medium alone to a guinea pig); […] [table]

[5] = system: patients with seasonal allergic rhinitis; assay: Evaluation test on pharmacological efficacy on patients with seasonal allergic rhinitis (daytime nasal symptom scores)
Method: Each of the groups was asked to take each preparation in accordance with the following medication schedule. Thereafter, each of the patients was daily evaluated on daytime nasal symptoms, e.g. sneezing attacks, nasal discharge, nasal congestion, and nasal itching, in accordance with the following evaluation criteria. The results were analyzed. The lower the nasal symptom scores, more alleviated the nasal symptoms.
The medication was scheduled for a total of about 6 to 18 weeks, including a screening period of from 0 days to 12 weeks, a placebo introducing period of from 4 to 7 days, an ingestion period for each preparation of 4 weeks, and a post-observation period of 1 week.
Here, the evaluation criteria for sneezing, nasal discharge, and nasal congestion were conducted in 5-ranks from scores 0 to 4, and the evaluation criterion for nasal itching was conducted in 4-ranks of scores 0 to 3.
As to the nasal symptoms evaluated by each patient, average scores/day at time points 1, 2, 3, and 4 weeks after the administration, and the week just before the administration (for example, at a time point of 2 weeks after the administration refers to a one-week period from one week after the administration to the second week) were calculated, and changes since the start of the test were calculated and used in analysis. Here, in the between-group comparison distribution of the background factors, Fisher's exact test was used for nominal scale data, and Kruskal-Wallis test was used for continuous data or ordinal scale data. In both tests, the significance levels were set at 0.15 on both sides. In the analyses of nasal symptom items, the between-group comparison according to covariance analysis of an average change after two weeks from the administration, the between-group comparison according to covariance analysis of a change on a weekly basis, the between-group comparison of a change on a weekly basis using a linear model, and the between-group comparison according to chi-square test of improvement rate on a weekly basis were conducted. In all the comparisons, the significance level was set at 0.05 on both sides. In addition, as to the changes of nasal symptoms on a weekly basis, the between-group comparison according to covariance analysis for changes on a weekly basis using a linear model was conducted. Further, the between-group comparison according to chi-square test of improvement rate of each of the daytime nasal symptoms on a weekly basis was conducted. In the covariance analysis for a change on a weekly basis, in cases where data each week were not measured, the data were supplemented according to Last Observation Carried Forward (LOCF) method.

[6] = system: seasonal allergic rhinitis patients; assay: Clinical test (Ph 2, protocol 077) on seasonal allergic rhinitis, Non-Patent Publication 1; type: in vivo, human; conditions: beclomethasone versus loratadine, change per symptom from placebo
Text: For example, Journal of Asthma, 46, 878-883, 2009 (Non-Patent Publication 1) describes clinical test results (Ph 2, protocol 077) on seasonal allergic rhinitis for a patient group administered with montelukast as an LT receptor antagonist, a patient group administered with loratadine as a histamine H1 receptor antagonist, and a patient group administered with beclomethasone as an intranasal steroid (see Table 3 in the publication). Here, the nasal symptoms, i.e. sneezing, nasal discharge, nasal congestion, and nasal itching, after two weeks since the start of the oral administration are scored to be evaluated.
Furthermore, Table 3 of Non-Patent Publication 1 describes clinical test results on seasonal allergic rhinitis for an intranasal steroid agent beclomethasone and a histamine H1 receptor antagonist loratadine. According to the publication, it can be seen that a change in scores of nasal symptoms, i.e. sneezing, nasal discharge, nasal congestion, and nasal itching, after two weeks since the start of the oral administration, per symptom from the placebo group is such that the change in a loratadine group is 0.31, i.e. a difference between 0.53 and 0.22, and that the change in a beclomethasone group is 0.48, i.e. a difference between 0.70 and 0.22. In other words, it can be seen that the intranasal steroid agent was 1.55 times effective of the histamine H1 receptor antagonist. […]

[7] = system: guinea pig rhinitis model; assay: Evaluation Test 1, guinea pig rhinitis model (OVA), nasal airway resistance, Formula (I) + fexofenadine hydrochloride; type: in vivo; conditions: single, 20 minutes after OVA challenge
Method: Guinea pig rhinitis models were generated by causing rhinitis-inflammation in 5 to 6 week-old male Harley guinea pigs in the following manner. Concretely, on day 0, the guinea pigs were intraperitoneally administered with cyclophosphamide diluted with physiological saline at 30 mg/kg. Two days later (on day 2), a mixed solution of aluminum hydroxide gel (10 mg), ovalbumin (OVA) (1 mg) and physiological saline was intraperitoneally administered to establish active sensitization. Thereafter, on day 9, a 1% OVA solution dissolved in physiological saline was intranasally challenged by 20 μL each to both the nostrils. Further, on day 16, a 2% OVA solution dissolved in physiological saline was intranasally challenged by 10 μL each to both the nostrils, thereby generating guinea pig rhinitis models that caused rhinitis-inflammation. Here, a control group that serves as a control was intranasally challenged by physiological saline in place of intranasally challenging by the OVA solution.
Specifically, prepared were the following: […]
Next, on day 23, a test substance listed in Table 7 was orally administered using a 0.5% methylcellulose (MC) solution as a medium, and one hour thereafter a 2% OVA solution dissolved in physiological saline was intranasally challenged by 10 μL each to both the nostrils (Group 1 was intranasally challenged by physiological saline in place of intranasal challenge by the OVA solution), and the nasal airway resistance was evaluated and analyzed. […] Here, nasal airway resistance (nRaw) is an average of specific airway resistance (sRaw) of 200 times or more breathing, and the analyzed values used in the comparisons of pharmacological efficacy are expressed as a percent change based on the nasal airway resistance measured before the intranasal challenge (100%) (IAR: immediately airway response). In addition, the between-group comparison was carried out according to one-sided t test, and the suppression percentage to Group 2 (Vehicle Group) was calculated by the following formula: […]

[8] = after two weeks from administration

In the case of `CCOC(=O)N1CCC(=C2c3ccc(Cl)cc3CCc3cccnc32)CC1` [loratadine, ethyl 4-(8-chloro-5,6-dihydro-11H-benzo[5,6]cyclohepta[1,2-b]pyridin-11-ylidene)-1-piperidinecarboxylate], the “change in nasal symptom scores per symptom since the start of the administration” value [1] is given as 0.53, the “change in nasal symptom scores per symptom from the placebo group” value [1] is given as 0.31 and the “change per symptom of the nasal symptom scores since the start of the administration” value [2] is given as 0.40. The “change per symptom of the nasal symptom scores, based on the placebo group” value [2] was 0.09, the “change per symptom of the nasal symptom scores since the start of the administration” value [3] was 0.34 and the “change per symptom of the nasal symptom scores, based on the placebo group” value [3] was 0.09.
For `Cl.Cl.O=C(O)COCCN1CCN(C(c2ccccc2)c2ccc(Cl)cc2)CC1` (racemic) [Cetirizine Hydrochloride, 2-(2-{4-[(RS)-(4-chlorophenyl)phenylmethyl]piperazin-1-yl}ethoxy)acetic acid dihydrochloride], the “suppression percentage of nasal airway resistance increase” value [4] was 20%, the “Change in Nasal Congestion Scores, Difference with Placebo Group” value [5, 8] was −0.13 and the “Change in Nasal Discharge Scores, Difference with Placebo Group” value [5, 8] was −0.31**. For the same molecule, the “Change in Nasal Itching Scores, Difference with Placebo Group” value [5, 8] was −0.28**, the “Change in Sneezing Scores, Difference with Placebo Group” value [5, 8] was −0.34*** and the “Change in Total of Three Nasal Symptom Scores, Difference with Placebo Group” value (“Change in Total … Difference with Placebo Group” below) ([5]; after two weeks from administration, dihydrochloride) was −0.73**. The “Change in Total … Difference with Placebo Group” value ([5]; after two weeks from administration, listed as cetirizine, dihydrochloride) was 0.73 and the “change per symptom (total of three nasal symptom scores, from the placebo group)” value ([5]; after two weeks, worked out from Table 2) was 0.24.
For `C[C@H]1C[C@H]2[C@@H]3CCC4=CC(=O)C=C[C@]4(C)[C@@]3(Cl)[C@@H](O)C[C@]2(C)[C@@]1(O)C(=O)CO` [beclomethasone], the “effect of intranasal steroid agent relative to histamine H1 receptor antagonist” value [6] is listed as 1.55 times, the “change in nasal symptom scores per symptom since the start of the administration” value [1] is listed as 0.70 and the “change in nasal symptom scores per symptom from the placebo group” value [1] is listed as 0.48.
With `CC(C)(C(=O)O)c1ccc(C(O)CCCN2CCC(C(O)(c3ccccc3)c3ccccc3)CC2)cc1.Cl` (racemic) [fexofenadine hydrochloride, (±)-2-{4-[1-hydroxy-4-[4-(hydroxydiphenylmethyl)piperidino]butyl]phenyl}-2-methylpropanoic acid monohydrochloride] the “suppression percentage of nasal airway resistance increase” value ([7]; Group 5, fexofenadine hydrochloride 20 mg/kg oral) was 15%.
With `CC(C)Oc1ccc(S(=O)(=O)N2CCN(c3ccc(-c4ncco4)c(OCC(=O)O)c3)CC2)cc1` [Formula (I), [2-(oxazol-2-yl)-5-(4-{4-[(propan-2-yl)oxy]phenylsulfonyl}piperazin-1-yl)phenoxy]acetic acid] the “suppression percentage of nasal airway resistance increase” value ([7]; Group 3, Formula (I) 1 mg/kg oral) was 21%, the “suppression percentage of nasal airway resistance increase” value ([7]; Group 4, Formula (I) 10 mg/kg oral) was 47% and the “suppression percentage of nasal airway resistance increase” value [4] was 32%. For the same molecule, the “Change in Nasal Congestion Scores, Difference with Cetirizine Hydrochloride Group” value [5, 8] was −0.03, the “Change in Nasal Congestion Scores, Difference with Placebo Group” value [5, 8] was −0.16* and the “Change in Nasal Discharge Scores, Difference with Cetirizine Hydrochloride Group” value [5, 8] was 0.13. For the same molecule, the “Change in Nasal Discharge Scores, Difference with Placebo Group” value [5, 8] was −0.19**, the “Change in Nasal Itching Scores, Difference with Cetirizine Hydrochloride Group” value [5, 8] was 0.21** and the “Change in Nasal Itching Scores, Difference with Placebo Group” value [5, 8] was −0.06. The “Change in Sneezing Scores, Difference with Cetirizine Hydrochloride Group” value [5, 8] was 0.23**, the “Change in Sneezing Scores, Difference with Placebo Group” value [5, 8] was −0.11 and the “Change in Total of Three Nasal Symptom Scores, Difference with Cetirizine Hydrochloride Group” value [5, 8] was 0.28. The “Change in Total … Difference with Placebo Group” value [5, 8] was −0.45*.
